Data: patent publication US7312302B2, “Compositions for the detection of enzyme activity in biological samples and methods of use thereof” (Oncolmmunin, Inc., priority 1997, dated 2007)
Non-standard residues stand in square brackets, D forms with d. Residues, ends and D or L forms follow the SMILES beside them. No end group written: not given here. *: point of attachment. F1 = 5-carboxytetramethylrhodamine (donor fluorophore); code B = not defined here; code J = not defined here; Nle = CCCC[C@H](N)C(=O)O; Cbz = O=C(OCc1ccccc1)*; F^2 = not defined here; CH2F = FC*

How the values were obtained:
intracellular caspases = assay: Effect of ZVAD(OMe)FMK on in situ caspase activation in dexamethasone-treated thymocytes, flow cytometry at 6 h; assay type: cell-based, mouse; design: effect when added before or simultaneously with dexamethasone: dose or concentration left out as unconfirmed
Method: Thymocytes were treated with 0.1 mM dexamethasone in vitro and analyzed after a total of 6 h incubation. The apoptosis inhibitor ZVAD(OMe)FMK was added at various times of incubation as indicated, and the caspase activities were assessed by flow cytometry. The results are expressed as ratios of mean fluorescence channel number comparing the activity in the presence of 50 mM ZVAD(OMe)FMK with the uninhibited sample for that substrate.
Single cell suspensions of thymocytes were cultured in RPMI 1640 with 10% FCS at a concentration of 10 6 cells/ml. Dexamethasone (final concentration, 0.1 mM) and ZVAD (OMe)FMK (final concentration, 50 mM) were added at the indicated times from stock solutions in DMSO (100 mM for dexamethasone and 200 mM for ZVAD[OMe]FMK). […] After washing in saline, cells were analyzed by flow cytometry. […] The fluorescence intensity was then monitored for 30-60 min. The initial velocity was calculated from the linear portion of the fluorescence increase. […]
The ability to detect intracellular caspase activities allowed us to study the pharmacological target of the potent apoptosis inhibitor ZVAD(OMe)FMK. […] Activity was assessed by the mean fluorescence channel number of PInegative cells. […] However, when addition of this inhibitor was delayed, the intracellular activity of all caspases detected rose, with no significant selective depletion of activity. […]

thymocytes = details: in vitro; cited from earlier work
[1] = intravenously injected antiFas; ischemia-reperfusion stroke model; cited from earlier work
elastase [2] = assay: Elastase digestion of fluorogenic protease indicator, HPLC of cleavage products; assay type: biochemical; details: 1 unit of elastase, about 30 minutes, 37° C., pH 8.9
Method: Approximately 1 microgram of protease indicator, having the formula F^1-Asp-Ala-Ile-Pro-Nle-Ser-Ile-Pro-Cys-F^2 (SEQ ID No: 184) where F^1 is a donor fluorophore (5′-carboxytetramethylrhodamine (5-TMR)) linked to aspartic acid via the alpha amino group and F^2 is an acceptor fluorophore (rhodamine X acetamide (R492)) linked via the sulfhydryl group of the cysteine was dissolved in a buffer consisting of 50 mM sodium phosphate, 1 mM EDTA at pH 8.9. To this solution was added 1 unit of elastase. The solution was analyzed by HPLC before and about 30 minutes after the addition of elastase. The digestion was carried out at 37° C. The HPLC separated components were monitored at a wavelength of 550 nm which allowed detection of both the 5-TMR fluorophore the R492 fluorophore and at 580 nm which allowed detection of the R492 fluorophore.
In addition, the two predominant peaks in FIGS. 1(b) and 1(c) indicate that the digestion occurred primarily at a single site.

elastase [3] = assay: Emission spectrum change of indicator after addition of elastase (spectrofluorometer); assay type: biochemical; details: 37° C., slit widths 4 nm
Method: Changes in the emission spectrum of the fluorogenic protease indicator after the addition of an elastase protease was monitored using an SLM spectrofluorometer model 48000 with slit widths set at 4 nm on both the excitation and emission sides. All measurements were carried out at 37° C.
Spectra in FIG. 2 show emission of the fluorogenic protease indicator (a) before and (b) after addition of elastase, while the time dependent increase of the indicator's donor fluorophore emission intensity, after addition of elastase, is plotted in FIG. 3. […] The changes in intensity between treated and untreated indicators are, to some degree, a function of slit widths used, since they represent the signal integrated across the particular slit width. Thus, if wider slit widths were used (e.g. 8 or 16 nm slits) an even greater signal would be provided in response to digestion.

[4] = test system: Jurkat cells, HL-60 cells, human lymphocyte lines, A1.1 cells, murine primary thymocytes; assay: Cellular uptake of substrates by fluorescence microscopy, flow cytometry, HPLC; assay type: cell-based; details: viable cells
Method: The compounds listed in Table 6 were synthesized and assayed for cellular uptake. Cellular internalization of the substrates was tested using Jurkat cells (a human acute T cell leukemic line), HL-60 cells (a human promyelocytic leukemic line), human lymphocyte lines, A1.1 cells (a murine T-cell line), and murine primary thymocytes. Procedures used in determining substrate uptake by viable cells are provided in Example 6 (for the HPLC procedures), in Example 2 (for the fluorescence microscopic analysis), and in Example 3 (for the flow cytometric analysis) a summary of these analyses with respect to cellular uptake of substrates is presented in this example.
The elastase substrate, Fm—K[F1]DAIPNluSIPK[F1]GY (SEQ ID NO:185), (where F1 was carboxytetramethylrhodamine, Fm was Fmoc, K[F1] was F1 covalently attached through the epsilon amino group of lysine (K), and Fm—K is the Fmoc group covalently attached at the alpha amino group of the amino terminal lysine residue) was used with HL-60 cells. Cells were incubated with various concentrations of elastase substrate ranging from 10 nM to 10 μM for 5 minutes to 60 minutes. Then the cells were diluted 5-fold with RPMI 1640 medium containing 5% serum or with phosphate buffered saline. The samples were centrifuged and washed once more with 1 ml of washing solution. After centrifugation and removal of the washing solution, cell pellets were loosened with about 25 ul of medium and these cells were transferred to a glass capillary. Capillary tubes were then placed on a glass microscope slide and examined under a fluorescence microscope using standard rhodamine filters.
For apoptosis-related protease activity determination, 10 μM concentration of the compounds listed in Example 8 (compound structures 2 through 13) were incubated with cells for 30 min. to 3 hours. The cells were then washed similarly twice. Using glass capillary tubes, the washed cells were transferred and examined under a fluorescence microscope.
(§1) The concentration of substrates used in flow cytometric analysis was 10 M in RPMI1640 medium containing 4 to 10% fetal calf serum. Cell densities during incubation with the chosen substrates ranged from 50,000 cells per ml to 4,000,000 per ml. Incubation times were from 30 min. to 3 hours at 37° C. and incubation volumes were 50 μL to 2 ml. After incubation with substrate for 30 to 60 min. cell suspensions were diluted 10-fold with ice cold Hank's Buffered Saline Solution (HBSS). This filtered cell suspension was then subjected to flow cytometric analysis using a 488 nm excitation source. Becton Dickenson, Inc.'s flow cytometer, FacSort, was used in the flow cytometric analysis. Typically, 10,000 to 30,000 events per sample were collected.

CPP32 protease = molecular target: T1, CPP32 protease (Homo sapiens, UniProt P42574); assay: Flow cytometric analysis of intracellular CPP32 protease activity in anti-Fas activated Jurkat cells; assay type: cell-based
T1 construct: served as a direct measure of the intracellular CPP32 protease activity; endogenous in cells
T1 sequence (P42574 29-277): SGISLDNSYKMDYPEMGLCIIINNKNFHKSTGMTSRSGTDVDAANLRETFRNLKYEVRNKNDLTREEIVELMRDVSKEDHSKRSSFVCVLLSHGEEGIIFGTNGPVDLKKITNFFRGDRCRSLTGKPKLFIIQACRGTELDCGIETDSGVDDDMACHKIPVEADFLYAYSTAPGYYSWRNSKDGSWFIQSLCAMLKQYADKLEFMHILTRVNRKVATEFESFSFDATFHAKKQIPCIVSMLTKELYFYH
Method: as §1, with “Typically, 10,000 to 30,000 events per sample were collected.” left out
Control cells without substrate incubation and the sample with the greatest expected fluorescence signals were used to set the instrument detector parameters. For example after 15 minutes incubation of Jurkat cells with substrate compound #11 Fm-CGD2D: Fm—K[F1]DBJGDEVDGIDGJPK[F1]GY (SEQ ID NO: 202, where F1 was carboxytetramethylrhodamine; Fm was Fmoc, K[F1] was F1 covalently attached through the epsilon amino group of lysine (K), Nlu was norleucine, B was aminoisobutyric acid, and J was epsilon-aminocaproic acid) an increase of about 10 channels indicating cellular uptake of the substrates was measured. […] As much as a ten-fold increase in fluorescence intensity was observed. […]

For COC(=O)C[C@H](NC(=O)[C@H](C)NC(=O)[C@@H](NC(=O)OCc1ccccc1)C(C)C)C(=O)CF [ZVAD(OMe)FMK, carbobenzoxyvalylalanylaspartyl(bmethyl ester)fluoromethyl ketone] (Cbz-Val-Ala-Asp(OMe)-CH2F), which “effect of pretreatment followed by washing before dexamethasone addition” value (intracellular caspases) is on record?
The value was “minimal inhibition”.

And the “effect when added before or simultaneously with dexamethasone” value (intracellular caspases)?
Its value is “blocks apoptosis”.

What about the “block of dexamethasone-induced thymocyte apoptosis” value (thymocytes) of the same compound?
The value was “specifically blocks”.

What about the protection of mice [1] of the same compound?
The protection of mice was “protect mice from the lethal effects”.

What does the source list for “F^1-Asp-Ala-Ile-Pro-Nle-Ser-Ile-Pro-Cys-F^2 (DAIP[Nle]SIPC-{F^2}; not fully specified (residue 9, N-terminus); printed as F1-Asp-Ala-Ile-Pro-Nle-Ser-Ile-Pro-Cys-F2; reading uncertain) [D-NorFES-A, F1 5'-carboxytetramethylrhodamine donor, F2 rhodamine X acetamide acceptor]”?
degree of cleavage by elastase (HPLC) (elastase [2]): complete digestion; increase in fluorescence at 589 nm after treatment with elastase (elastase [3]): > 10 fold; increase in fluorescence within the first 1000 seconds of exposure to the protease (elastase [3]): > 5 fold

Which “cellular uptake (Table 6)” value [4] does the source give for “Fm-K[F1]DBJGDEVDGIDGJPK[F1]GY (K(F1)D[code B][code J]GDEVDGIDG[code J]PK(F1)GY; not fully specified (N-terminus); printed as Fm-K[F1]DBJGDEVDGIDGJPK[F1]GY; reading uncertain) [Compound 11]” here?
Its value is “efficient cellular uptake”.

And the “increase in fluorescence intensity in activated cells” value (CPP32 protease; 1 μg/ml anti-Fas antibody CH11 for 1 to 6 hours)?
Its value is “ten-fold”.

And the “increase in channels indicating cellular uptake” value (CPP32 protease; 15 minutes incubation)?
Its value is “about 10 channels”.
